Experimental findings from patent EP2508526A1, “Spiroalkene carboxamide derivatives and their use as chemokine receptor modulators” (Ares Trading SA, priority 2011, dated 2012) are described below.

The structures appear in SMILES notation. Counter-ions that a name gives are not always drawn.

The target in the test is T1, hCCR2b (Homo sapiens, UniProt P41597).
T1 sequence (P41597 1-360 isoform P41597-2): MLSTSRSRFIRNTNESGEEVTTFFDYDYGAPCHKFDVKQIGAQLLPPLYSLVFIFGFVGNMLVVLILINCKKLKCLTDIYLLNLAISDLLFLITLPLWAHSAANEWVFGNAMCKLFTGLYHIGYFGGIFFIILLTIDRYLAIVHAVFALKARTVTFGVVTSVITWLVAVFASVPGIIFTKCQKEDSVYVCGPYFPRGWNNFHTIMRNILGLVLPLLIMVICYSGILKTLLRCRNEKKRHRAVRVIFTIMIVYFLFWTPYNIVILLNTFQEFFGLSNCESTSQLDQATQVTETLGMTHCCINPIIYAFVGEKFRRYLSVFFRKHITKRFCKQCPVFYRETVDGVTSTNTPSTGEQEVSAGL
Kind of test: CCR2 binding assay ([125I]MCP-1, SPA, CHO cell membranes). The note with it: membranes from CHO cells expressing hCCR2b, 50 pM [125I]MCP-1; read-out: Binding hCCR2 (Ki). Further details: expressed in transfected cells; host or cells: CHO cells (membrane preparation). The protocol:
Membranes were prepared from CHO cells expressing mCCR2b or hCCR2b for use in ligand binding studies. Cells were suspended in 50mM Tris-HCL, pH 7.4, 2 mM EDTA, 250 mM Sucrose and 1x Complete EDTA-free protease inhibitor cocktail (Roche) (Buffer A), and disrupted at 4°C by N2 decompression using a cell disruption bomb (Parr Instrument). Following centrifugation at 200 RCF for 10 min at 4°C, the supernatant was suspended in buffer A and centrifuged again at 19000 RPM (RCSC rotor SS34 code 05 Sorvall Instruments DUPONT) for 90 min at 4°C. The pellet was then suspended in 10 mM HEPES, pH 7.4, 1 mM EDTA, 250 mM Sucrose, and 1x Complete EDTA-free protease inhibitor cocktail (Buffer B) and homogenized using a potter. Membranes were flash frozen in liquid N2 and stored at -80°C. [125I] Monocyte Chemoattractant Protein -1 (MCP-1) (25µCi; Perkin Elmer) was added to test compounds in DMSO (1% final). Membranes and WGA SPA beads (GE Healthcare) were added to give a final volume of 100 µl in 96-well plates with assay concentrations of 50 pM or 100 pM [125I]Monocyte Chemoattractant Protein -1 (respectively for hCCR2b or mCCR2b), 50 mM HEPES, pH 7.4, 5 mM MgCl2, 1 mM CaCl2, 0.1% BSA, 1-5 µg/well of membranes and 100 µg/well of WGA SPA beads. Binding was performed for 90 min at RT with strong agitation of speed 5 (Heidolph Titramax 100 SCITEC) and bound radioactivity was measured on a PerkinElmer 1450 MicroBeta counter. Specific binding was calculated by subtracting remaining radioactivity in the presence of 1000-fold excess of unlabeled compound. Binding data were analyzed using the Genedata Screener® software.
The term Ki denotes a measure of affinity in units of concentration, obtained from inhibition or displacement. For the molecule `CO[C@@H]1COCC[C@@H]1N1CCC2(CC1)OC(=O)C(C)=C2C(=O)N1CCc2ncc(C(F)(F)F)cc2C1` (single isomer, unassigned) [Compound 44, (-)-1,5-anhydro-2,3-dideoxy-4-O-methyl-3-(3-methyl-2-oxo-4-{[3-(trifluoromethyl)-7,8-dihydro-1,6-naphthyridin-6(5H)-yl]carbonyl}-1-oxa-8-azaspiro[4.5]dec-3-en-8-yl)-pentitol], the Ki was 100 to 500 nM.
As for `COC1COCCC1N1CCC2(CC1)OC(=O)C(C)=C2C(=O)N1CCc2ccc(C(F)(F)F)cc2C1` (single isomer, unassigned; (+)) [Compound 41, (+)-1,5-anhydro-3,4-dideoxy-2-O-methyl-3-(3-methyl-2-oxo-4-{[7-(trifluoromethyl)-3,4-dihydroisoquinolin-2(1H)-yl]carbonyl}-1-oxa-8-azaspiro[4.5]dec-3-en-8-yl)-pentitol], the Ki is below 50 nM.
Regarding `COC1COCCC1N1CCC2(CC1)OC(=O)C(C)=C2C(=O)N1CCc2ncc(C(F)(F)F)cc2C1` (single isomer, unassigned; (+)) [Compound 48, (+)-1,5-anhydro-3,4-dideoxy-2-O-methyl-3-(3-methyl-2-oxo-4-{[3-(trifluoromethyl)-7,8-dihydro-1,6-naphthyridin-6(5H)-yl]carbonyl}-1-oxa-8-azaspiro[4.5]dec-3-en-8-yl)-pentitol], the Ki lay within 100 to 500 nM.
Regarding `COC1COCCC1N1CCC2(CC1)OC(=O)C(C)=C2C(=O)N1CCc2ccc(C(F)(F)F)cc2C1` (single isomer, unassigned; (-)) [Compound 40, (-)-1,5-anhydro-2,3-dideoxy-4-O-methyl-3-(3-methyl-2-oxo-4-{[7-(trifluoromethyl)-3,4-dihydroisoquinolin-2(1H)-yl]carbonyl}-1-oxa-8-azaspiro[4.5]dec-3-en-8-yl) -pentitol], the Ki was below 50 nM.
Next, `COC(CN1CCC2(CC1)OC(=O)C(C)=C2C(=O)N1CCN(c2cccc(C(F)(F)F)c2)CC1)c1ccccc1` (stereo not shown) [Compound 7, 8-(2-methoxy-2-phenylethyl)-3-methyl-4-({4-[3-(trifluoromethyl)phenyl]piperazin-1-yl}carbonyl)-1-oxa-8-azaspiro[4.5]dec-3-en-2-one]: 50 to 100 nM; `COc1cccc(CCN2CCC3(CC2)OC(=O)C(C)=C3C(=O)N2CCN(c3cccc(C(F)(F)F)c3)CC2)c1` [Compound 8, 8-[2-(3-methoxyphenyl)ethyl]-3-methyl-4-({4-[3-(trifluoromethyl)pheny)]piperazin-1-yl}carbonyl)-1-oxa-8-azaspiro[4.5]dec-3-en-2-one, dihydrochloride salt]: below 50 nM.
Turning to `CC1=C(C(=O)N2CCN(c3cccc(C(F)(F)F)c3)CC2)C2(CCN(CC(=O)O)CC2)OC1=O` [Compound 9, [3-methyl-2-oxo-4-({4-[3-(trifluoromethyl)phenyl]piperazin-1-yl}carbonyl)-1-oxa-8-azaspiro[4.5]dec-3-en-8-yl]acetic acid], the Ki lay within 100 to 500 nM.
Take `CC1=C(C(=O)N2CCN(c3cccc(C(F)(F)F)c3)CC2)C2(CCN(CCC(=O)O)CC2)OC1=O` [Compound 10, 3-[3-methyl-2-oxo-4-({4-[3-(trifluoromethyl)phenyl]piperazin-1-yl}carbonyl)-1-oxa-8-azaspiro[4.5]dec-3-en-8-yl]propanoic acid]: the Ki fell in the range of 100 to 500 nM.
For the molecule `CC1=C(C(=O)N2CCN(c3cccc(C(F)(F)F)c3)CC2)C2(CCN(CCCC(=O)O)CC2)OC1=O` [Compound 11, 4-[3-methyl-2-oxo-4-({4-[3-(trifluoromethyl)phenyl]piperazin-1-yl}carbonyl)-1-oxa-8-azaspiro[4.5]dec-3-en-8-yl]butanoic acid], the Ki was 100 to 500 nM.
Take `CC1=C(C(=O)N2CCN(c3cccc(C(F)(F)F)c3)CC2)C2(CCN(CCc3ccncc3)CC2)OC1=O` [Compound 12, 3-methyl-8-(2-pyridin-4-ylethyl)-4-({4-[3-(trifluoromethyl)phenyl]piperazin-1-yl}carbonyl)-1-oxa-8-azaspiro[4.5]dec-3-en-2-one]: the Ki lay in the range of 50 to 100 nM.
Regarding `CC1=C(C(=O)N2CCN(c3cccc(C(F)(F)F)c3)CC2)C2(CCN(CCc3ccc(Cl)cc3)CC2)OC1=O` [Compound 13, 8-[2-(4-chlorophenyl)ethyl]-3-methyl-4-({4-[3-(trifluoromethyl)phenyl]piperazin-1-yl}carbonyl)-1-oxa-8-azaspiro[4.5]dec-3-en-2-one], the Ki is below 50 nM.
For `CC1=C(C(=O)N2CCN(c3cccc(C(F)(F)F)c3)CC2)C2(CCN(CCc3ccccc3Cl)CC2)OC1=O` [Compound 14, 8-[2-(2-chlorophenyl)ethyl]-3-methyl-4-({4-[3-(trifluoromethyl)phenyl]piperazin-1-yl}carbonyl)-1-oxa-8-azaspiro[4.5]dec-3-en-2-one], the Ki lay within 100 to 500 nM.
For the molecule `CC1=C(C(=O)N2CCN(c3cccc(C(F)(F)F)c3)CC2)C2(CCN(CCc3cccc(Cl)c3)CC2)OC1=O` [Compound 15, 8-[2-(3-chlorophenyl)ethyl]-3-methyl-4-({4-[3-(trifluoromethyl)phenyl]piperazin-1-yl}carbonyl)-1-oxa-8-azaspiro[4.5]dec-3-en-2-one], the Ki is below 50 nM.
In the case of `COCCN1CCC2(CC1)OC(=O)C(C)=C2C(=O)N1CCc2ccc(C(F)(F)F)cc2C1` [Compound 16, 8-(2-methoxyethyl)-3-methyl-4-{[7-(trifluoromethyl)-3,4-dihydroisoquinolin-2(1H)-yl]carbonyl}-1-oxa-8-azaspiro[4.5]dec-3-en-2-one], the Ki was below 50 nM.
Turning to `CC1=C(C(=O)N2CCc3ccc(C(F)(F)F)cc3C2)C2(CCN(CCF)CC2)OC1=O` [Compound 17, 8-(2-fluoroethyl)-3-methyl-4-{[7-(trifluoromethyl)-3,4-dihydroisoquinolin-2(1H)-yl]carbonyl}-1-oxa-8-azaspiro[4.5]dec-3-en-2-one], the Ki was below 50 nM.
As to `COCCCN1CCC2(CC1)OC(=O)C(C)=C2C(=O)N1CCc2ccc(C(F)(F)F)cc2C1` [Compound 18, 8-(3-methoxypropyl)-3-methyl-4-{[7-(trifluoromethyl)-3,4-dihydroisoquinolin-2(1H)-yl]carbonyl}-1-oxa-8-azaspiro[4.5]dec-3-en-2-one], the Ki was below 50 nM.
As to `CC1=C(C(=O)N2CCc3ccc(C(F)(F)F)cc3C2)C2(CCN(CCN3CCOCC3)CC2)OC1=O` [Compound 19, 3-methyl-8-(2-morpholin-4-ylethyl)-4-{[7-(trifluoromethyl)-3,4-dihydroisoquinolin-2(1H)-yl]carbonyl}-1-oxa-8-azaspiro[4.5]dec-3-en-2-one], the Ki was below 50 nM.
As for `CC1=C(C(=O)N2CCc3ccc(C(F)(F)F)cc3C2)C2(CCN(CCO)CC2)OC1=O` [Compound 20, 8-(2-hydroxyethyl)-3-methyl-4-{[7-(trifluoromethyl)-3,4-dihydroisoquinolin-2(1H)-yl]carbonyl}-1-oxa-8-azaspiro[4.5]dec-3-en-2-one], the Ki was below 50 nM.
Next, `CC1=C(C(=O)N2CCN(c3cccc(C(F)(F)F)c3)CC2)C2(CCN(C3CCOCC3)CC2)OC1=O` [Compound 21, 3-methyl-8-(tetrahydro-2H-pyran-4-yl)-4-({4-[3-(trifluoromethyl)phenyl]piperazin-1-yl}carbonyl)-1-oxa-8-azaspiro[4.5]dec-3-en-2-one]: below 50 nM; `CC1=C(C(=O)N2CCN(c3cccc(C(F)(F)F)c3)CC2)C2(CCN(CC3CCOC3)CC2)OC1=O` (stereo not shown) [Compound 22, 3-methyl-8-(tetrahydrofuran-3-ylmethyl)-4-({4-[3-(trifluoromethyl)phenyl]piperazin-1-yl}carbonyl)-1-oxa-8-azaspiro[4.5]dec-3-en-2-one]: below 50 nM.
In the case of `CC1=C(C(=O)N2CCN(c3cccc(C(F)(F)F)c3)CC2)C2(CCN(C3CCCOC3)CC2)OC1=O` (stereo not shown) [Compound 23] it was below 50 nM; in that of `CC1=C(C(=O)N2CCN(c3cccc(C(F)(F)F)c3)CC2)C2(CCN(C3CCC(C(=O)O)CC3)CC2)OC1=O` (stereo not shown) [Compound 24, 4-[3-methyl-2-oxo-4-({4-[3-(trifluoromethyl)phenyl]piperazin-1-yl}carbonyl)-1-oxa-8-azaspiro[4.5]dec-3-en-8-yl]cyclohexanecarboxylic acid], 50 to 100 nM.
